Laboratory results published in patent publication EP1285920A1, “C10 Ester sustituted taxanes as antitumor agents” (Florida State University Research Foundation, Inc., priority 2001, dated 2003).
Read-outs that look alike come from different tables or passages of the source.

Columns and labels:
VM46 colon carcinoma = conditions: for Mean Score: tumor scoring system
Protocol: Dosing was initiated on Day 1. […] Taxotere was given i.v. at a dose of 70 mg/kg on a qd x 1 schedule.

DU145 prostate carcinoma = conditions: for Stable Disease / Complete Response / Partial Response / Survivors / Toxic Deaths: number of 5 mice
Excerpt: Dosing was initiated on Day 1. […] Treatment groups are detailed in Table 5.

[1] = test system: Panc-1 pancreatic carcinoma; assay: In vivo evaluation against Panc-1 human pancreatic carcinoma (Example 17)
Protocol: The dosing volume was 0.3 ml per 20 g mouse.
Female NCr-nude mice were implanted subcutaneously with 1 mm^3 Panc-1 pancreatic carcinoma fragments in the flank and sorted into treatment groups of six mice each. […] Dosing was initiated on Day 1. The antitumor compounds were given i.v. at an estimated maximum tolerated dose (MTD) appropriate for each agent on a qd x 1 schedule (single administration of compound). […] The vehicle was administered i.v. to control mice in Group 1 on the qd x 1 schedule. The study was terminated on Day 60.
The mean days of survival is the number of days after which a neoplasm reached a size of 1.5 g and the animal was euthanized. A complete response is obtained if the tumor shrinks to a size smaller than its size on Day 1 of the study.

A375 melanoma = test system: A375 melanoma
Protocol: Dosing was initiated on Day 1. […] Taxotere was given i.v. on a qd x 1 schedule at a dose of 70 mg/kg. […] The study was terminated on Day 60. Treatment groups are detailed in Table 9.

[2] = number of mice, Taxol 15 mg/kg i.p. qd x 5, 6 mice, Day 64
[3] = number of mice, i.v. qd x 1, mg/kg: Taxol 24, 0499 77, 0503 72.6, 0670 123.1, 0706 107.6, 0838 72.6, 0854 46.6, 0983 67.4, Taxotere 70, 6 mice/group, Day 64
[4] = i.v. qd x 1 at estimated MTD (Taxol 24 mg/kg split), Day 91
[5] = number of mice, i.v. qd x 1, mg/kg: Taxol 36, 0499 77, 0503 72.6, 0670 123.1, 0706 107.6, 0838 72.6, 0854 76.9, 6 mice/group, Day 60
[6] = number of mice, Taxol i.p. qd x 5, 18 mg/kg daily, 6 mice

CC(=O)O[C@H]1C(=O)[C@@]2(C)[C@H]([C@H](OC(=O)c3ccccc3)[C@]3(O)C[C@H](OC(=O)[C@H](O)[C@@H](NC(=O)c4ccccc4)c4ccccc4)C(C)=C1C3(C)C)[C@]1(OC(C)=O)CO[C@@H]1C[C@@H]2O [Taxol, paclitaxel, reference compound]
toxicity (VM46 colon carcinoma; VM46, Taxol i.p. 15 mg/kg qd x 5): excessively toxic
mortalities (VM46 colon carcinoma; VM46, Taxol i.p. 15 mg/kg qd x 5, six treated animals): three
partial responses (VM46 colon carcinoma; VM46, i.v. qd x 1 (compounds estimated MTD; Taxol 24 mg/kg split), six mice per group, ended Day 64): one
Stable Disease (VM46 colon carcinoma; VM46, i.v. qd x 1, six mice per group): one
MDS (n) (VM46 colon carcinoma; mean days of survival until neoplasm reached 1.5 g, Taxol 15 mg/kg i.p. qd x 5, 6 mice, terminated Day 64): 36.1 ± 12.2 (2) days
Toxic Deaths (VM46 colon carcinoma; number of mice, Taxol 15 mg/kg i.p. qd x 5, 6 mice): 3
Complete Response (VM46 colon carcinoma; [2]): 0
Partial Response (VM46 colon carcinoma; [2]): 1
Stable Disease (VM46 colon carcinoma; [2]): 0
Survivors (VM46 colon carcinoma; [2]): 1
Toxic Deaths (VM46 colon carcinoma; number of mice, i.v. qd x 1, mg/kg: Taxol 24, 0499 77, 0503 72.6, 0670 123.1, 0706 107.6, 0838 72.6, 0854 46.6, 0983 67.4, Taxotere 70, 6 mice/group): 0
Complete Response (VM46 colon carcinoma; [3]): 0
Partial Response (VM46 colon carcinoma; [3]): 1
Stable Disease (VM46 colon carcinoma; [3]): 1
Survivors (VM46 colon carcinoma; [3]): 2
Mean Score (VM46 colon carcinoma; Taxol 15 mg/kg i.p. qd x 5, 6 mice): 1.8 ± 1.3
Mean Score (VM46 colon carcinoma; i.v. qd x 1, mg/kg: Taxol 24, 0499 77, 0503 72.6, 0670 123.1, 0706 107.6, 0838 72.6, 0854 46.6, 0983 67.4, Taxotere 70, 6 mice/group): 3.8 ± 1.4
increase in survival compared to Group 1 controls (DU145 prostate carcinoma; DU145, Taxol 24 mg/kg i.v. qd x 1): 9%
toxicity (DU145 prostate carcinoma; DU145, Taxol i.p. 18 mg/kg qd x 5 (Group 3)): highly toxic
mice died of drug-related side effects (DU145 prostate carcinoma; DU145, Taxol i.p. 18 mg/kg qd x 5 (Group 3), five mice): five
MDS (DU145 prostate carcinoma; DU145, i.v. qd x 1 (compounds estimated MTD; Taxol 24 mg/kg split), days until tumor 1.5 g, ended Day 91): 37.4 days
toxic deaths / toxic lethalities (DU145 prostate carcinoma; DU145, i.v. qd x 1, five mice per group): One
Mean Score (DU145 prostate carcinoma; Taxol 18 mg/kg i.p. qd x 5, 5 mice): 0 ± 0
Mean Score (DU145 prostate carcinoma; i.v. qd x 1 at estimated MTD (Taxol 24 mg/kg split), 5 mice/group, Day 91): 2 ± 1
MDS (n) (DU145 prostate carcinoma; mean days of survival until tumor reached 1.5 g, i.v. qd x 1 at estimated MTD (Taxol 24 mg/kg as two split doses), 5 mice/group, study ended Day 91): 37.4 ± 8.9 (3) days
Stable Disease (DU145 prostate carcinoma; tumor did not reach 1.5 g by end of study, i.v. qd x 1 at estimated MTD (Taxol 24 mg/kg split), Day 91): 1
Complete Response (DU145 prostate carcinoma; Taxol 18 mg/kg i.p. qd x 5): 0
Partial Response (DU145 prostate carcinoma; Taxol 18 mg/kg i.p. qd x 5): 0
Stable Disease (DU145 prostate carcinoma; Taxol 18 mg/kg i.p. qd x 5): 0
Survivors (DU145 prostate carcinoma; Taxol 18 mg/kg i.p. qd x 5): 0
Toxic Deaths (DU145 prostate carcinoma; Taxol 18 mg/kg i.p. qd x 5): 5
Toxic Deaths (DU145 prostate carcinoma; i.v. qd x 1 at estimated MTD (Taxol 24 mg/kg as two split doses), Day 91): 1
Complete Response (DU145 prostate carcinoma; [4]): 0
Partial Response (DU145 prostate carcinoma; [4]): 0
Survivors (DU145 prostate carcinoma; [4]): 1
survival extension compared to Group 1 controls ([1]; Panc-1 (Example 17), Taxol 36 mg/kg i.v. qd x 1, three mice): 126%
Toxic Deaths ([1]; Panc-1 (Example 17), i.v. qd x 1, six mice per group): Three
Toxic Deaths ([1]; number of mice, i.v. qd x 1, mg/kg: Taxol 36, 0499 77, 0503 72.6, 0670 123.1, 0706 107.6, 0838 72.6, 0854 76.9, 6 mice/group): 3
Complete Response [1, 5]: 0
Partial Response [1, 5]: 0
Stable Disease [1, 5]: 0
Survivors [1, 5]: 0
Mean Score ([1]; tumor scoring system, i.v. qd x 1, mg/kg: Taxol 36, 0499 77, 0503 72.6, 0670 123.1, 0706 107.6, 0838 72.6, 0854 76.9, 6 mice/group): 1.6 ± 0.7
toxicity (A375 melanoma; A375, Taxol i.p. 18 mg/kg qd x 5): highly toxic
animals died of toxicity (A375 melanoma; A375, Taxol i.p. 18 mg/kg qd x 5, six animals): six
survival extension compared to Group 1 controls (A375 melanoma; A375, i.v. qd x 1): 26%
MDS (A375 melanoma; A375, i.v. qd x 1 (Taxol 24 mg/kg split; Taxotere 70 mg/kg), days until tumor 2.0 g, ended Day 60): 18.1 days
MDS (n) (A375 melanoma; mean days of survival until neoplasm reached 2.0 g, i.v. qd x 1 at estimated MTD (Taxol 24 mg/kg, Taxotere 70 mg/kg), 6 mice/group (Taxotere 7), terminated Day 60): 18.1 ± 0.6 (4) days
Complete Response (A375 melanoma; [6]): 0
Partial Response (A375 melanoma; [6]): 0
Stable Disease (A375 melanoma; [6]): 0
Survivors (A375 melanoma; [6]): 0
Toxic Deaths (A375 melanoma; [6]): 6
